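GI50 = concentration required for 50% inhibition of growth. At the TGI there is no net growth.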
How the values were obtained:
Assay in all cases: NCI-60 cell line screen, 384-well format
LOX IMVI melanoma = test system: LOX IMVI melanoma
SK-MEL-2 melanoma = test system: SK-MEL-2 melanoma
MOLT-4 leukemia = test system: MOLT-4 leukemia
NCI-H226 lung = test system: NCI-H226 lung
SK-OV-3 ovarian = test system: SK-OV-3 ovarian
RPMI-8226 leukemia = test system: RPMI-8226 leukemia
SNB-19 CNS = test system: SNB-19 CNS
SN12C renal = test system: SN12C renal
DU-145 prostate = test system: DU-145 prostate
EKVX NSCLC = test system: EKVX NSCLC
U251 glioblastoma = test system: U251 glioblastoma
HT29 colon = test system: HT29 colon
SW-620 colon = test system: SW-620 colon
M14 melanoma = test system: M14 melanoma
BT-549 breast = test system: BT-549 breast
NCI-H522 lung = test system: NCI-H522 lung
K-562 leukemia = test system: K-562 leukemia
OVCAR-5 ovarian = test system: OVCAR-5 ovarian
MDA-MB-231 breast = test system: MDA-MB-231 breast
NCI/ADR-RES ovarian = test system: NCI/ADR-RES ovarian
COLO 205 colon = test system: COLO 205 colon
UACC-62 melanoma = test system: UACC-62 melanoma
MDA-MB-468 breast = test system: MDA-MB-468 breast
HCT-15 colon = test system: HCT-15 colon
TK-10 renal = test system: TK-10 renal
SF-268 CNS = test system: SF-268 CNS
HCT-116 colon = test system: HCT-116 colon
SK-MEL-28 melanoma = test system: SK-MEL-28 melanoma
MALME-3M melanoma = test system: MALME-3M melanoma
MCF7 breast = test system: MCF7 breast
PC-3 prostate = test system: PC-3 prostate
KM12 colon = test system: KM12 colon
RXF 393 renal = test system: RXF 393 renal
SNB-75 CNS = test system: SNB-75 CNS
OVCAR-3 ovarian = test system: OVCAR-3 ovarian
IGROV1 ovarian = test system: IGROV1 ovarian
HOP-92 NSCLC = test system: HOP-92 NSCLC
HOP-62 NSCLC = test system: HOP-62 NSCLC
UO-31 renal = test system: UO-31 renal
CAKI-1 renal = test system: CAKI-1 renal
SF-295 CNS = test system: SF-295 CNS
ACHN renal = test system: ACHN renal
786-0 renal = test system: 786-0 renal
HCC-2998 colon = test system: HCC-2998 colon
HS 578T breast = test system: HS 578T breast
CCRF-CEM leukemia = test system: CCRF-CEM leukemia
SF-539 CNS = test system: SF-539 CNS

In the case of CCCS(=O)(=O)Nc1ccc(F)c(C(=O)c2c[nH]c3ncc(-c4ccc(Cl)cc4)cc23)c1F, the GI50 (LOX IMVI melanoma) was 3.93 µM, the TGI (LOX IMVI melanoma) was 11.6 µM and the GI50 (SK-MEL-2 melanoma) was 0.0758 µM. It also gave a TGI (SK-MEL-2 melanoma) of 0.33 µM, a GI50 (MOLT-4 leukemia) of 3.23 µM and a TGI (MOLT-4 leukemia) of 8.74 µM. The GI50 (NCI-H226 lung) was 7.95 µM, the TGI (NCI-H226 lung) was 17.2 µM and the GI50 (SK-OV-3 ovarian) was 5.57 µM. For the same compound, the TGI (SK-OV-3 ovarian) was 12 µM, the GI50 (RPMI-8226 leukemia) was 3.38 µM and the TGI (RPMI-8226 leukemia) was 6.5 µM. For the same compound, the GI50 (SNB-19 CNS) was 8.27 µM, the TGI (SNB-19 CNS) was 23.4 µM and the GI50 (SN12C renal) was 8.1 µM. The TGI (SN12C renal) was 22.5 µM, the GI50 (DU-145 prostate) was 5.88 µM and the TGI (DU-145 prostate) was 18.6 µM. For the same compound, the GI50 (EKVX NSCLC) was 7 µM, the TGI (EKVX NSCLC) was 12.7 µM and the GI50 (U251 glioblastoma) was 4.35 µM. The TGI (U251 glioblastoma) was 9.9 µM, the GI50 (HT29 colon) was 0.146 µM and the TGI (HT29 colon) was 10.4 µM. The GI50 (SW-620 colon) was 4.61 µM, the TGI (SW-620 colon) was 23.3 µM and the GI50 (M14 melanoma) was 0.0305 µM. For the same compound, the TGI (M14 melanoma) was 0.321 µM, the GI50 (BT-549 breast) was 5.9 µM and the TGI (BT-549 breast) was 19.2 µM. The GI50 (NCI-H522 lung) was 7.93 µM, the TGI (NCI-H522 lung) was 16 µM and the GI50 (K-562 leukemia) was 1.66 µM. For the same compound, the TGI (K-562 leukemia) was 3.43 µM, the GI50 (OVCAR-5 ovarian) was 4.41 µM and the TGI (OVCAR-5 ovarian) was 21.3 µM. For the same compound, the GI50 (MDA-MB-231 breast) was 3.8 µM, the TGI (MDA-MB-231 breast) was 8.85 µM and the GI50 (NCI/ADR-RES ovarian) was 9.06 µM. For the same compound, the TGI (NCI/ADR-RES ovarian) was 22.4 µM, the GI50 (COLO 205 colon) was 0.0425 µM and the TGI (COLO 205 colon) was 1.18 µM. For the same compound, the GI50 (UACC-62 melanoma) was 0.0345 µM, the TGI (UACC-62 melanoma) was 0.912 µM and the GI50 (MDA-MB-468 breast) was 5.74 µM. It also gave a TGI (MDA-MB-468 breast) of 9.38 µM, a GI50 (HCT-15 colon) of 5.83 µM and a TGI (HCT-15 colon) of 13.5 µM. For the same compound, the GI50 (TK-10 renal) was 13.5 µM, the TGI (TK-10 renal) was 22.3 µM and the GI50 (SF-268 CNS) was 7.88 µM. It also gave a TGI (SF-268 CNS) of 15.8 µM, a GI50 (HCT-116 colon) of 3.85 µM and a TGI (HCT-116 colon) of 11.5 µM. It also gave a GI50 (SK-MEL-28 melanoma) of 0.0274 µM, a TGI (SK-MEL-28 melanoma) of 0.388 µM and a GI50 (MALME-3M melanoma) of 0.0242 µM. For the same compound, the TGI (MALME-3M melanoma) was 0.0897 µM, the GI50 (MCF7 breast) was 6.82 µM and the TGI (MCF7 breast) was 13.3 µM. For the same compound, the GI50 (PC-3 prostate) was 8.55 µM, the TGI (PC-3 prostate) was 21.3 µM and the GI50 (KM12 colon) was 4.11 µM. For the same compound, the TGI (KM12 colon) was 13.1 µM, the GI50 (RXF 393 renal) was 2.36 µM and the TGI (RXF 393 renal) was 6.45 µM. It also gave a GI50 (SNB-75 CNS) of 5.79 µM, a TGI (SNB-75 CNS) of 13.3 µM and a GI50 (OVCAR-3 ovarian) of 8.19 µM. It also gave a TGI (OVCAR-3 ovarian) of 16.1 µM, a GI50 (IGROV1 ovarian) of 1.87 µM and a TGI (IGROV1 ovarian) of 8.76 µM. It also gave a GI50 (HOP-92 NSCLC) of 4.98 µM, a TGI (HOP-92 NSCLC) of 12.1 µM and a GI50 (HOP-62 NSCLC) of 5.12 µM. The TGI (HOP-62 NSCLC) was 14.9 µM, the GI50 (UO-31 renal) was 4.74 µM and the TGI (UO-31 renal) was 16.6 µM. For the same compound, the GI50 (CAKI-1 renal) was 3.69 µM, the TGI (CAKI-1 renal) was 10.5 µM and the GI50 (SF-295 CNS) was 3.34 µM. For the same compound, the TGI (SF-295 CNS) was 5.93 µM, the GI50 (ACHN renal) was 5.39 µM and the TGI (ACHN renal) was 19.5 µM. For the same compound, the GI50 ([…]-0 renal) was 4.03 µM, the TGI (786-0 renal) was 13.5 µM and the GI50 (HCC-2998 colon) was 0.593 µM. For the same compound, the TGI (HCC-2998 colon) was 1.96 µM, the GI50 (HS 578T breast) was 2.52 µM and the TGI (HS 578T breast) was 6.2 µM. The GI50 (CCRF-CEM leukemia) was 4.15 µM, the TGI (CCRF-CEM leukemia) was 6.41 µM and the GI50 (SF-539 CNS) was 4.33 µM. The TGI (SF-539 CNS) was 10.5 µM.

— PubChem BioAssay (NCI)
